Drawing on a melting point compilation (Tetko et al.; mined from patent text by program, amines drawn as free bases though some values may be those of a salt), this text covers melting point for 88 molecules.

Where only a bound is given, the exact number is not on record here.

The melting point is the temperature of the solid-liquid transition. With `CCCCN(CCCC)c1nc(Nc2cccc3c2C(=O)c2ccccc2C3=O)nc(N(CCCC)CCCC)n1`, the melting point lay in the range of 128 to 133 °C.
The result for `Cc1ccc(F)c([Si](C)(C)C)c1C(=O)N(C)C(C)(C)C` reads 44 to 47 °C; that for `C=CCCN(c1ccc(OC)cc1)S(=O)(=O)c1c(F)c(F)c(F)c(F)c1F`, 64 to 66 °C.
For the molecule `CC(C)(C)[Si](C)(C)O[C@H]1CC(=O)O[C@H](CO)C1`, the melting point amounted to 102 °C.
The result for `Cc1nnnn1-c1ccccc1S(N)(=O)=O` reads 141 to 148 °C; that for `OCC1=Cc2cc3ccccc3n2CC1`, 139 to 142 °C; that for `COc1ccc(C(=O)Nc2ccc3c(c2)CCCC3=O)cc1`, 163 to 166 °C.
For `CC=CC=CC(O)c1ccc(-c2nc(C)c3c(n2)sc2c(OCC)nc(N4CCNCC4)nc23)cc1` (stereo not drawn) the value was 149 to 150 °C.
In the case of `COc1ccc(CN2C(=O)C(c3cc4c(C)noc4cc3O)c3ccccc32)cc1` (stereo not drawn), the melting point was 195 to 197 °C.
The result for `CCNC(=O)c1ccc(N2CCNCC2)c(F)c1` reads 142 to 145 °C.
For `COC(=O)c1cnc(C(=O)OC)c(SCc2cccc(C(F)(F)F)c2)c1` the value was 102 to 106 °C.
In the case of `CC(C)(C)C(=O)Oc1cc(OS(=O)(=O)C(F)(F)F)cc2oc(-c3ccccc3)cc(=O)c12`, the melting point was in the range of 126 to 128 °C.
For `O=C(Oc1cc(CBr)ccc1F)c1ccccc1` the value was 180 to 182 °C; for `O=C1NC(=O)C(Cc2ccc(OCc3nc(-c4ccccc4)cs3)cc2)S1` (stereo not drawn), 164 to 165 °C; for `CN(C)C(=O)N(C)C(=O)Nc1ccccc1`, 89.5 to 90.5 °C.
The result for `COCCc1cccc2oc(C(=O)Nc3ccc(-c4ccc(S(=O)(=O)NC(C(=O)O)C(C)C)cc4)cc3)c(C)c12` (stereo not drawn) reads 100 to 110 °C.
The result for `O=S(=O)(c1ccc(-n2ncnc2-c2cnccn2)cc1)C(F)F` reads 152 to 154 °C; that for `CNc1ccc(N2CCC(C)CC2)c(C(=O)c2ccc(Cl)cc2)c1`, 177 °C; that for `Cc1cc(C)cc(OCC(O)CCCl)c1` (stereo not drawn), 74 to 76 °C.
On to `COc1ccc2c(c1)CCC1CCN(C)C(=O)C(CC(C)=O)=C21` (stereo not drawn), for which the melting point fell in the range of 190 to 192 °C.
The result for `Cc1cccc(C(=O)N(C(=O)c2cccc(C)c2)c2nc3ccccc3c(NCc3ccccc3)c2C#N)c1` reads 234 °C; that for `CCN1C(=O)C(=O)N(c2cc(F)ccc2C)C1=S`, 152 to 153 °C.
Take `Cc1ccc(S(=O)(=O)N(c2ccc(Cl)cc2[N+](=O)[O-])C2CC2)cc1`: the melting point was in the range of 98.5 to 100 °C.
For `CCn1ncc(OCc2ccc(C3CCCCC3)cc2)c(Cl)c1=O` the value was 168 to 170 °C.
The result for `COc1ccc(-c2cccc(OC3SCC(OC(C)=O)C(OC(C)=O)C3OC(C)=O)c2)cn1` (stereo not drawn) reads 132 °C.
For `COCCNC(=O)c1ccc(C(=O)N2CCN(c3ncccc3NCC(C)C)CC2)nc1` the value was 123 to 125 °C.
In the case of `CCSc1nc2ccccc2c(=O)n1NC(=O)Nc1ccc(Cl)cc1`, the melting point fell in the range of 234 to 235 °C.
On to `NC(Cc1c(Cl)cccc1Cl)=NO`, for which the melting point lay in the range of 172 to 173 °C.
The result for `CC1=NCC2CC(=O)N(c3ccccc3)c3cc(Cl)ccc3N12` (stereo not drawn) reads 248 to 251 °C.
The result for `NCc1cccc(CNC(N)=O)c1` reads 127 to 129 °C; that for `Cc1c(CO)ncnc1N1CCCC1`, 112 to 114 °C.
As to `COCCCNC(=O)Nc1ccc(N2CCOCC2)cc1C(=O)NCC1CCN(C(c2ccccc2)c2ccccc2)CC1`, the melting point is 175 to 176 °C.
The result for `COc1ccc(CNc2ccc(F)c(Cl)c2)cc1OC` reads 127 to 128 °C.
The result for `O=C(CCC#Cc1ccccn1)Nc1cccc(Cl)c1` reads 168 to 169 °C.
`Cc1ccc(N2C(=O)C(O)=C(C(=O)c3ccc(OC(F)(F)F)cc3)C2c2ccc(Cn3cncn3)cc2)nn1` (stereo not drawn) yielded a melting point of 224 °C.
On to `O=C(O)CN(Cn1nnc2ccccc21)Cn1nnc2ccccc21`, for which the melting point was 163 to 166 °C.
For `CS(=O)CC(=O)c1cc(C(C)(C)C)c(O)c(C(C)(C)C)c1` (stereo not drawn) the value was 144 to 145 °C; for `C=C1c2ccccc2C(n2cncc2C(=O)OC)C1(C)C` (stereo not drawn), 125 to 126 °C.
For `CN(C)CCCCCCCCCCC(=N)NC(=S)Nc1ccc(Cl)cc1` the value was 130 to 132 °C.
For `CC(=O)Nc1ccc(N(C)C(=O)OCc2ccccc2)c(O)c1` the value was 174 °C.
As to `CC(C)(C#N)c1cc(C(Cl)c2cncnc2)cc(C(C)(C)C#N)c1` (stereo not drawn), the melting point fell in the range of 118 to 121 °C.
In the case of `COc1ccnc(CCc2nc3cc(-c4ccc(S(=O)(=O)N5CCN(C(C)=O)CC5)cc4)cnc3[nH]2)c1`, the melting point is 138 to 140 °C.
The result for `CC(C)(C)C1=CCC(C(=O)O)CC1` (stereo not drawn) reads 141 to 143 °C; that for `Cc1cccc(NCC2=NCCN2C(=O)Nc2ccc(Cl)cc2)c1C`, 153 to 155 °C.
The result for `CC(C)Oc1cccc(-n2c(NC(=O)Nc3cccc(C(=O)O)c3)nc3ccccc3c2=O)c1` reads 158 to 160 °C; that for `CC(=O)Nc1cc2c(s1)C(c1ccccc1)CN(C)CC2` (stereo not drawn), 180 °C.
The result for `CCCC(=O)c1c[nH]c2c(F)cccc2c1=O` reads 176 to 178 °C; that for `O=C(O)c1coc(Cc2ccccc2)n1`, 155 to 156 °C; that for `CC(c1cc(F)ccc1O)c1cc(Cl)cc(Cl)c1O` (stereo not drawn), 150 °C.
The molecule `O=C(N1CCOCC1)C(c1ccccc1)(c1ccccc1)c1ncc[nH]1` yielded a melting point of 113 °C.
The result for `CCOC(=O)C1=C(COCc2nnn(CCNc3ccc(S(=O)(=O)N4CCOCC4)cn3)n2)NC(C)=C(C(=O)OC)C1c1cccc(Cl)c1Cl` (stereo not drawn) reads 112 to 114 °C.
The result for `CCOC(=O)C(C#N)=C1CCN(c2ccc(N3C[C@H](CNC(C)=O)OC3=O)cc2F)CC1` reads 165 to 169 °C; that for `O=C1NC(=O)c2ccccc2/C1=C/Nc1ccc2cn[nH]c2c1`, over 300 °C; that for `Nc1ncnc2c1c(-c1ccc(Oc3ccccc3)cc1)nn2C1CCOCC1`, 187 to 188 °C.
The result for `CN(C)S(=O)(=O)n1cnc(-c2ccc(Cl)cc2Cl)c1` reads 169 to 171 °C; that for `CC1(C)CCCCc2ccc(C(=O)O)cc21`, 155 to 156 °C; that for `CN1C(=O)N(CC(COc2ccc(-c3ccc(S(N)(=O)=O)cc3)cc2)N(O)C=O)C(=O)C1(C)C` (stereo not drawn), 203 to 205 °C.
For `CC(=O)Nc1nc(NC(C)=O)nc(C2CCC(c3ccccc3)CC2)n1` (stereo not drawn), the melting point lay in the range of 235 to 236 °C.
For `O=C1CNC(SCc2ccccn2)=N1` the value was 105 to 107 °C.
The result for `CC(=O)NC[C@H]1CN(c2ccc(C(=O)c3cnc4ccccn34)cc2)C(=O)O1` reads 218 to 220 °C; that for `CCOC(=O)c1cc(CC)sc1Nc1ccc(F)cc1[N+](=O)[O-]`, 90 °C; that for `C=CCc1c(OCc2ccc3ccccc3n2)ccc2c1c(SC(C)(C)C)c(CC(C)(C)C(=O)O)n2Cc1ccc(Cl)cc1`, 103 to 105 °C.
On to `COc1cc(C=O)ccc1OCc1nc(-c2ccccc2)sc1C`, for which the melting point is 133 to 134 °C.
Turning to `CCCCCCCCCCCCNC(=O)c1cc(-c2ccc(OC)cc2)cc(-c2cccc(Cl)c2OCC(=O)O)c1`, the melting point fell in the range of 114 to 117 °C.
The result for `CC(C)(C)n1nnc(-c2ccccc2-c2ccc(C=O)cc2)n1` reads 71 to 73 °C; that for `CCOC(=O)c1nnc(-c2ccccc2)cc1-c1cccc([N+](=O)[O-])c1`, 121 to 122 °C.
The result for `CN1CCN(c2ccc3nc(-c4ccc(F)cc4)c(I)n3n2)CC1` reads 180 °C.
On to `O=C(Nc1ccc2ccc(Cl)nc2n1)C1=CSCS1`, for which the melting point came out at 235 °C.
`COc1ccc(S(=O)(=O)C2(CCCC#Cc3ccc(Cl)cc3)SC(=O)N(C)C2=O)cc1` (stereo not drawn): the melting point lay within 113 to 115 °C.
For `CCCCCCCCCCCCCCCCNc1ccc(C2=NCCO2)cc1` the value was 123 to 125 °C; for `COC(=O)c1ccccc1C(=O)NN(C(=S)Nc1ccccc1)C(C)C`, 145 to 147 °C.
The result for `COc1ccccc1C(=O)c1noc(CC(N)=O)n1` reads 149 to 150 °C; that for `Cn1cncc1C(O)(c1ccoc1)c1ccc2c(c1)c(-c1cccc(Cl)c1)cc(=O)n2C` (stereo not drawn), 248 °C; that for `O=C1Cc2cc(NC(=O)C(=O)N3CCC(Cc4ccccc4)CC3)ccc2N1`, 115 to 118 °C.
For `CN(CCOc1ccc2c(c1)OC(C)(C)C=C2c1ccc2ccccc2c1)Cc1ccccc1` the value was 112 to 115 °C; for `O=C(CCCO)NCCO`, 54 to 56 °C.
Take `N=C(N)Nc1nc(CSCCNC2=C([N+](=O)[O-])CCCN2)cs1`: the melting point was in the range of 211 to 212 °C.
The result for `CC(=O)Oc1c(C)cc(C=CC(=O)Nc2cnc3c(C)cc(C)cc3c2-c2ccccc2Cl)cc1C` reads 207 to 208 °C; that for `CCCO[C@@H](C)C(=O)Oc1ccc(-c2ccc(C(=O)O)cc2)cc1`, 155 °C; that for `CCc1nccn1CCCOCc1cccc(SC)c1NC(=O)CC1c2ccccc2Oc2ccccc21`, 159 to 160 °C.
For `COC(=O)c1cc(Cl)ccc1-n1cnnc1C` the value was 86 to 88.5 °C; for `CSc1ccc(CC2=C(O)CSC2=O)cc1`, 206 to 208 °C; for `Cc1nccn1-c1cccc(C2=Nc3cc(O)c(-c4ccccc4F)cc3NC(=O)C2)c1`, over 250 °C.
For `CN(Cc1cc2c3c(c1)c(=O)c(C(=O)NCc1ccc(F)cc1)cn3CC(=O)N2C)C[C@@H](O)c1ccccc1` the value was 150 to 152 °C.
Molecule `Cn1c(=O)c(Oc2ccccc2F)cc2cnc(N)nc21` yielded a melting point of 241 to 243 °C.
The result for `Clc1cnc2cnc(Cl)nc2c1` reads 177 to 178 °C.
The result for `COc1cc(C)nc(NC(=O)NS(=O)(=O)c2cccc3c2S(=O)(=O)C(C)C3)n1` (stereo not drawn) reads 224 to 226 °C.
The result for `CC(C)C(=O)n1cc(-c2ccc(Oc3ccccc3)cc2)c2c(N)ncnc21` reads 160 to 161 °C.
